Experimental data: the Kinase Knowledgebase extract (Sharma et al. 2016)

What follows are compounds tested against CDK2 (UniProt P24941) (assay: Enzyme Assay).
With `CC(C)c1cnn2c(NC3CCN(S(=O)(=O)C(C)C)CC3)cc(N[C@H]3CC[C@H](N)CC3)nc12` the IC50 was 11900 nM.
`CC(C)c1cnn2c(Nc3ccc(S(=O)(=O)N4CCCC4)cc3)cc(Cl)nc12` was tested, and the IC50 was 270 nM.
Compound `CCc1cnn2c(Nc3ccc(C(N)=O)cc3)cc(N[C@H]3CC[C@@H](N)CC3)nc12` has an IC50 of 350 nM.
`CCNC(=O)N[C@H]1CC[C@H](Nc2cc(Nc3ccc(S(=O)(=O)N(C)C)cc3)n3ncc(C(C)C)c3n2)CC1` showed an IC50 of 305 nM.
Work on `CC(C)c1cnn2c(Nc3ccc(S(C)(=O)=O)cc3)cc(OC3CCCCC3)nc12` yielded an IC50 of 950 nM.
`CC(C)c1cnn2c(Nc3ccc(S(C)(=O)=O)cc3)cc(Cl)nc12` showed an IC50 of 220 nM.
In the case of `N[C@H]1CC[C@H](Nc2cc(Nc3ccc(S(=O)(=O)c4ccccc4)cc3)n3ncc(Cl)c3n2)CC1`, the IC50 is reported as 15 nM.
Compound `CC(C)c1cnn2c(Nc3ccc(S(=O)(=O)N(C)CCO)cc3)cc(NC3CCCC3)nc12` has an IC50 of 302 nM.
In the case of `CC(C)c1cnn2c(Nc3ccc(S(=O)(=O)N(C)C)cc3)cc(Nc3ccncc3)nc12`, the IC50 is reported as 3090 nM.
Compound `CC(C)c1cnn2c(NCc3ccncc3)cc(-c3cccc(Br)c3)nc12` has an IC50 of 530 nM.
In the case of `N[C@H]1CC[C@H](Oc2cc(Nc3ccc(S(=O)(=O)c4ccccc4)cc3)n3ncc(Br)c3n2)CC1`, the IC50 is reported as 15 nM.
`CC(C)c1cnn2c(Nc3ccc(S(=O)(=O)N(C)CCO)cc3)cc(OCCN(C)C)nc12` gave an IC50 of 240 nM.
`N[C@H]1CC[C@H](Oc2cc(Nc3ccc(S(=O)(=O)c4ccccc4)cc3)n3ncc(Cl)c3n2)CC1` showed an IC50 of 45 nM.
Work on `CSc1cc(Nc2cc(N[C@H]3CC[C@H](N)CC3)nc3ccnn23)ccc1S(=O)(=O)N(C)C` yielded an IC50 of over 50000 nM.
Compound `COc1cc(Nc2cc(N[C@H]3CC[C@H](N)CC3)nc3c(Br)cnn23)ccc1S(=O)(=O)N(C)C` has an IC50 of 270 nM.
